The nature of data set [1]: Pharmacokinetic profile in healthy human males. In kind it is in vivo. Here is the method:
FIGURE 3 Inhibition of human lysyl oxidase‐like 2 (LOXL2) enzymatic activity by PXS‐5338 in clinical trials. (A) LOXL2 protein concentration in human serum is fairly constant over 24 h. Protein concentrations normalised to pre‐dose levels are plotted over time in healthy subjects treated with different doses (placebo, 100, 200 and 400 mg) of PXS‐5338. Mean ± SD with n = 6/time point. Phase 1 study with healthy male volunteers, ANZCTR ACTRN12617001444370. Legend of (A) also applies to (B) and (C). (B) Dose‐dependent inhibition of LOXL2 in plasma following a single oral dose of 100, 200 mg or 400 mg PXS‐5338. PXS‐5878/Simoa® platform used to measure the residual activity. Mean ± SD with n = 6/time point. (C) Pharmacokinetic (PK) profile of PXS‐5338 in healthy human males. […] (D) Correlation between LOXL2 protein concentration versus % inhibition. Activity data normalised to pre‐dose value.

In the next data set the target is T1, rh LOXL2 (Homo sapiens, UniProt Q9Y4K0).
T1 sequence (Q9Y4K0 26-774): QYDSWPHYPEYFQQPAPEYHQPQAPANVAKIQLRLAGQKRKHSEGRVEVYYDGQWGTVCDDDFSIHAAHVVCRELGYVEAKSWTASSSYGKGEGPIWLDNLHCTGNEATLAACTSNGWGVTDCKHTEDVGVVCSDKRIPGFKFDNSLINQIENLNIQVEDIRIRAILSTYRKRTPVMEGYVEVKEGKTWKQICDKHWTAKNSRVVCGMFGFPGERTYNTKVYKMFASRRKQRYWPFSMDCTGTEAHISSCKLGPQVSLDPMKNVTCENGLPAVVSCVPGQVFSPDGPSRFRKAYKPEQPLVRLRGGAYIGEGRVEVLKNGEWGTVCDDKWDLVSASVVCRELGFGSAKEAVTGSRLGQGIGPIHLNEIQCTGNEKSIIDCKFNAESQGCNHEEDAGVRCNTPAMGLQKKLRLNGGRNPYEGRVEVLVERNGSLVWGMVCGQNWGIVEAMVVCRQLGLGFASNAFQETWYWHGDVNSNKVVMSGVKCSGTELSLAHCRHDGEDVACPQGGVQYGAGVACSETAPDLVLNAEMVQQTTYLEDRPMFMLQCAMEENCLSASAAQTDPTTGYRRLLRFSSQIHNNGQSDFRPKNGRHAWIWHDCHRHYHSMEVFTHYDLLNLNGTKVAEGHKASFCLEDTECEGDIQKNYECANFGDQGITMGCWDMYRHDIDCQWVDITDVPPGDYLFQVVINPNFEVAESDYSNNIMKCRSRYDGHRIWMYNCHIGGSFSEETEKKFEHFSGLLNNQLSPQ
Kind of data set: Jump dilution assay, rh LOXL2. In kind it is biochemical. From the text:
FIGURE 1 Characteristics of the activity‐based probe (ABP) PXS‐5878. (A) Chemical structure of PXS‐5878, with functional subunits denoted with different colours. The fluoroallylamine moiety (blue) was designed to interact with the lysine tyrosylquinone (LTQ) co‐factor within the lysyl oxidase active sites. An extended linker (green) was incorporated to provide optimal separation between the reactive functional group and the tag, avoiding unfavourable steric hindrance. Biotin was selected as a tag, with higher sensitivity found to be achieved using a double tag (red), resulting in PXS‐5878 as the preferred ABP. (B) Concentration‐dependent inhibition of recombinant human (rh) lysyl oxidase‐like 1‐4 (LOXL1‐4) and native bovine LOX in a standard Amplex Red assay with 30 min pre‐incubation; n = 3–4 independent experiments, standard error of mean (SEM). Native bovine LOX was used as a surrogate for human LOX as both enzymes have similar pharmacology for fluoroallylamines.[2], [9] (C) Irreversible nature of PXS‐5878 enzyme inhibition confirmed using a jump dilution assay. Enzyme (rh LOXL1, rh LOXL2 or LOXL3) was pre‐incubated with 10 × IC50 of PXS‐5878 for 30 min, then diluted 100x and remaining activity assessed by Amplex Red assay. […] Each value is an average of three experiments. (D) Schematic representation of the assay development to detect lysyl oxidase activity by PXS‐5878 using a direct enzyme‐linked assay with lysyl oxidases as the target analyte. HRP: horseradish peroxidase; TMB: 3,3′,5,5′‐tetramethylbenzidine, a chromogenic substrate. […]
For fluoroallylamine-based inhibitors, replacement of fluorine with hydrogen (leading to the corresponding des-fluoro structures) results in a drop in potency and a switch from irreversible to reversible inhibition. […] (B) For PXS-5878, removal of the fluoro moiety in a simplified analogue results in a significant drop in potency for LOXL2, meaning (ir)reversibility cannot be accurately measured.

Take `CC(C)c1c(Cc2ccc(S(C)(=O)=O)nc2)c2ncccc2n1C/C(F)=C/CN` [PXS‐5338]: in data set [1], the “Compound half-life in humans” value is recorded as “prolonged compound half‐life”. The “Mode of inhibition (reversible/irreversible) of LOXL2” value at rh LOXL2 is “irreversibly inhibits the enzyme”.

(Values after paper PMC8571951, “An activity‐based bioprobe differentiates a novel small molecule inhibitor from a LOXL2 antibody and provides renewed promise for anti‐fibrotic therapeutic strategies” (Clinical and Translational Medicine, 2021).)
